Data as given in PMC8398472, “Anticancer Diiron Vinyliminium Complexes: A Structure–Activity Relationship Study” (Pharmaceutics, 2021).
Entries after “also recorded” stand apart in the source; their conditions may differ.

Legend:
[1] = test system: A2780 cells; assay: Intracellular ROS production, DCFH-DA assay; type: cell-based, human; conditions: 20 μM, up to 24 h, DCFH-DA fluorescence
Method: The intracellular production of reactive oxygen species (ROS) upon treatment of the compounds 3b, 4a, 4c, 5b and 6c was measured by using the DCFH-DA (2′,7′-dichlorodihydrofluorescein diacetate, Merck) assay, based on cellular uptake of the non-fluorescent diacetate following deacetylation by esterases (2′,7′-dichlorodihydrofluorescein, DCFH) and oxidation to the fluorescent dichlorofluorescein (2′,7′-dichlorofluorescein, DCF). A2780 cells were seeded at concentration of 4 × 10^4 cells/well/90 µL of complete growth medium into 96-well plates. After overnight incubation, the cells were treated following manufacturer protocol. 100 µL of a solution containing the fluorogenic probe were added to the culture medium and, after 1 h of incubation with 5% CO2 at 37 °C, the cells were exposed to a final concentration of 20 µM of the tested complexes; H2O2 100 µM was used as a positive control. Stock solutions of compounds were prepared as described above; cells incubated with equal amounts of DMSO in supplemented RPMI were used as control. The fluorescence was measured up to 24 h with an excitation wavelength of 485 nm and with a 535 nm emission filter by Multilabel Counter (PerkinElmer). For each tested compound, assay was performed on triplicate. The data were reported as mean ± standard deviation, statistical differences were analyzed using one-way analysis of variance (ANOVA) and a Tukey test was used for post hoc analysis. A p-value < 0.05 is considered statistically significant.

[2] = test system: human ovarian carcinoma cisplatin-resistant A2780cisR; assay: Cytotoxicity, WST-1 cell viability assay, A2780cisR; type: cell-based; conditions: for IC50: 72 h exposure
Method: In vitro cytotoxicity investigations were carried out by using human ovarian carcinoma cisplatin-sensitive A2780 (ECACC93112519), human ovarian carcinoma cisplatin-resistant A2780cisR (ECACC 93112517) and mouse embryo fibroblasts Balb/3T3 clone A31 (ATCC CCL-163) cell lines. A2780 and A2780cisR were purchased from the European Collection of Authenticated Cell Cultures (ECACC), and Balb/3T3 clone A31 cell line from the American Type Culture Collection (ATCC).
A2780 and A2780cisR cells were routinely cultured in RPMI 1640 (Merck) containing 2 mM of L-glutamine (Merck), 1% of penicillin/streptomycin solution (Merck—10 000 U mL^−1: 10 mg mL^−1), 10% of fetal bovine serum (Merck—FBS) and antimycotic (InvivoGen, USA), and Balb/3T3 clone A31 in Dulbecco’s modified Eagle medium (Merck—DMEM) supplemented with 4 mM of L-glutamine, 1% of penicillin/streptomycin solution, 10% of calf serum (Merck) and antimycotic. […] The cultures were maintained at 37 °C and in a 5% CO2-enriched atmosphere.
A2780, A2780cisR and Balb/3T3 clone A31 cells were seeded in 96-well tissue culture polystyrene plates at a concentration of 3 × 10^3, 6 × 10^3 and 1 × 10^3 cells per well, respectively. After overnight incubation, the cells were treated with different concentrations (0–100 µM) of the selected compounds for 72 h at 37 °C in a 5% atmosphere of CO2. Stock solutions of compounds were prepared in DMSO and sequentially diluted in medium (final DMSO concentration of 0.5%). […] At the end of the incubation time, cell viability was assessed by means of WST-1 tetrazolium salt reagent (Roche). Briefly, cells were incubated for 4 h with the tetrazolium salt reagent diluted 1:10, at 37 °C and 5% CO2. Measurements of formazan dye absorbance, which directly correlates with the number of viable cells, were carried out with a micro-plate reader (Biorad) at 450 nm, using 655 nm as reference wavelength. The 50% inhibitory concentration (IC50) refers to compound concentration at which 50% of cell death is observed with respect to the control. For each tested compound, assay was performed on triplicate. The concentration effect curves were generated by nonlinear regression curves (GraphPad Prism Software, 2021) and the data reported as mean ± standard deviation.

Row | Substance | Intracellular ROS production [1] | IC50 [2] [µM] | Selectivity index vs A2780cisR ([2]; Balb/3T3 compared to A2780cisR)
1 | [Fe2Cp2(CO)(μ-CO){μ-η^1:η^3-C^3(Me)C^2(Me)C^1NMe(4-C6H4OMe)}]CF3SO3 [Compound 6c] | appreciable ROS production | 17 ± 3 | –
2 | [Fe2Cp2(CO)(μ-CO){μ-η^1:η^3-C^3(Me)C^2(Me)C^1NMe(CH2Ph)}]CF3SO3 [Compound 5b] | appreciable ROS production; also recorded: most effective of the series | 12 ± 4 | –
3 | [Fe2Cp2(CO)(μ-CO){μ-η^1:η^3-C^3(Me)C^2(Me)C^1NMe(Cy)}]CF3SO3 [Compound 4c] | appreciable ROS production | 11.4 ± 0.9 | 8
4 | [Fe2Cp2(CO)(μ-CO){μ-η^1:η^3-C^3(Me)C^2HC^1NMe(Cy)}]CF3SO3 [Compound 4a] | appreciable ROS production | 11.6 ± 1.3 | –
5 | [Fe2Cp2(CO)(μ-CO){μ-η^1:η^3-C^3(Ph)C^2HC^1NMe(CH2CH = CH2)}]CF3SO3 [Compound 3b] | appreciable ROS production | 29 ± 3 | –
